Laboratory results taken from US7659292B2 (priority 2001, dated 2010).
Read-outs that look alike come from different tables or passages of the source.

Tested on: Phytophthora infestans
Type: in vivo
Details: for Efficacy (obs.)/ %: percentage disease control relative to untreated plants; for Rating: potato plants, spray 200 l/ha, inoculated 24 hours after treatment, degree of infestation

Row | SMILES | Efficacy (obs.)/ % (5 g/ha) | Efficacy (obs.)/ % (25 g/ha) | Rating (5 g/ha) | Rating (25 g/ha) | Efficacy (obs.)/ % (400 g/ha) | Efficacy (obs.)/ % (600 g/ha) | Rating (400 g/ha) | Rating (600 g/ha)
1 | O=C(NCc1ncc(C(F)(F)F)cc1Cl)c1c(Cl)cccc1Cl [Compound (Ia), 2,6-dichloro-N-{[3-chloro-5-(trifluoromethyl)-2-pyridinyl]methyl}benzamide] | 48% | 60% | 4.3 | 3.3 |  |  |  | 
2 | CCCOC(=O)NCCCN(C)C [Compound (II), propyl 3-(dimethylamino)propylcarbamate] |  |  |  |  | 0% | 18% | 8.3 | 6.8
